Experimental data from paper PMC10916623, “Tissue distribution and pharmacokinetics of isoxanthohumol from hops in rodents” (Food Science & Nutrition, 2023).
Where “and” joins values, the source holds several entries; their conditions need not be identical. Equal values may be shown once. One block for each compound: values may come before it.

Tests used:
[1] = Liver accumulation after intragastric IXA administration at various concentrations to rats for 28 days; type: in vivo, Sprague–Dawley rats; conditions: rat liver
Description: Six‐week‐old female Sprague–Dawley rats (Charles River Laboratories Japan, Inc., Yokohama, Japan) were housed in a room maintained at 20–26°C on a 12‐h light–dark cycle. The initial BW of rats was 176–179 g. They were allowed free access to a commercial diet (CRF‐1) and water during the experiment. IXA dissolved in injection solution was administered intragastrically to rats (112.5, 225, 360, 450, and 1500 mg/kg BW) daily for 28 days using a gastric feeding tube. We also set up a control group to which the injection solution was administered. The final BW of rats was 231–241 g. The liver was collected the day after the last administration. The rats were fasted for 16–24 h before they were euthanized, but they had free access to water. Liver samples were stored at −80°C until analysis.
(§1) Tissue sample deconjugation was performed as described in a previous report with slight modifications (Tanaka et al., [2022]). Tissues were homogenized in phosphate‐buffered saline (pH 7.4), which was nine times the tissue volume. The tissue homogenate was incubated in 50 mmol/L ascorbic acid (one‐fifth the volume of phosphate‐buffered saline) and 1.67 μkat/100 μL of β‐glucuronidase type H‐1 in 0.1 mol/L sodium acetate buffer (pH 4.7, nine times the volume of the sample) for 2 h at 37°C. Then, 2.4 nmol of QTM was added to samples as an internal standard. The supernatant was isolated by centrifugation at 17 × 10^3 m/s^2 (Kubota) for 5 min at 4°C. Then, methanol (Kanto Kagaku, 25183‐2B) was added to the pellets, and they were shaken for 1 min. The methanol layer and pellets were separated by centrifugation at 17 × 10^3 m/s^2 (Kubota, RY1071‐A000) for 5 min at 4°C. Methanol extraction was repeated three times. Finally, methanol extracts were mixed with the supernatant (the composition of the mixture was 30% methanol) and then applied to an Inert Sep C8 (200 mg/3 mL; GL Sciences, Tokyo, Japan; 5010‐61082) cartridge. The cartridge was preconditioned with 6 mL of 2% acetic acid in methanol, and then 9 mL of 2% acetic acid in water. The extracted tissue was passed through the cartridge, and it was washed with 5 mL of 2% acetic acid in 30% methanol aq. The flavonoids were eluted with 10 mL of 2% acetic acid in methanol.
The plasma and tissue extracts were evaporated using a Centrifugal Evaporator (EYERA, Tokyo, Japan, CVE‐3000). The samples were stored at −80°C until the next day. Then, the samples were dissolved in 120 μL of a mobile phase solution and divided into two test tubes. […]
IXA and 8‐PN concentrations were determined by their respective standard curves using an internal standard method. […] Because clear peaks over 4.5 pmol/sample were detected for IXA and 8‐PN by visual evaluation, we determined that these concentrations were the peak limit of detections for each flavonoid. […]

[2] = Tissue distribution after single-gavage administration of IXA to mice; type: in vivo, C57/BL6 mice; conditions: for 8-PN accumulation, single-ingestion test (at 24 h) / AUC (0–48 h) 8-PN/IXA / C max 8-PN: mice; for 8-PN accumulation, single-ingestion test (at 24 h): single IXA 50 mg/kg BW; for 8-PN accumulation, single-ingestion test (at 24 h) / C max 8-PN: metabolite; for AUC (0–48 h) 8-PN/IXA / C max 8-PN: single oral IXA 50 mg/kg BW
Description: (§2) Six‐week‐old male C57/BL6 mice (initial BW: 19–24 g; Japan SLC, Shizuoka, Japan) were housed in a room maintained at 23–26°C with a 12‐h light–dark cycle. During the 1‐week acclimatization period, they were allowed free access to a commercial diet (Oriental Yeast Co., Tokyo, Japan) and water. Two days before the experiment, they were fed AIN‐93M (Oriental Yeast Co.). Before drug administration, they were fasted for 20 h, but had free access to water. IXA dissolved in 3% hydroxypropyl‐β‐cyclodextrin and 5% ethanol (Fujifilm; Wako Pure Chemical Corp., Osaka, Japan) was named the injection solution and administered (50 mg/kg BW) to mice intragastrically using a gastric feeding tube (AS ONE, Osaka, Japan). Blood, brain, thymus, heart, lung, liver, spleen, pancreas, kidney, and gastrocnemius muscle were collected 0.5, 1, 2, 4, 8, 12, 24, and 48 h after administration. We also set up a control group, and mice in this group were sacrificed just before we started administering IXA at 0 h. At 4 h after administration, mice were allowed free access to AIN‐93 M. Plasma was isolated by centrifugation at 17 × 10^3 m/s^2 (5911, Kubota, Tokyo, Japan) for 5 min at 4°C. All tissues were dissected, weighed, and immediately frozen in liquid nitrogen. All samples were stored at −80°C until analysis.
as §1
(§3) The plasma and tissue extracts were evaporated using a Centrifugal Evaporator (EYERA, Tokyo, Japan, CVE‐3000). The samples were stored at −80°C until the next day. Then, the samples were dissolved in 120 μL of a mobile phase solution and divided into two test tubes. The first sample was injected into the HPLC with an ultraviolet detection system (Shimadzu, Kyoto, Japan).
(§4) IXA and 8‐PN concentrations were determined by their respective standard curves using an internal standard method. A Cadenza 3‐μm CD‐C18 HPLC column (CD005, 150 × 4.6 mm; Imtakt Corporation, Kyoto, Japan) was equipped for HPLC (λ = 295 nm). The mobile phase consisted of methanol:water:acetic acid (60:35:5, v/v/v). The flow rate was set at 1.0 mL/min. […] Because clear peaks over 4.5 pmol/sample were detected for IXA and 8‐PN by visual evaluation, we determined that these concentrations were the peak limit of detections for each flavonoid. We applied calibration curves in the IXA/QTM concentration ratio range of 0.007–35.1 (R ^2 = .9955).

[3] = Plasma pharmacokinetics after single-gavage administration of IXA to mice; type: in vivo, C57/BL6 mice; conditions: single oral IXA 50 mg/kg BW, data not shown
Description: as §2
(§5) Plasma samples were deconjugated by β‐glucuronidase type H‐1 (which has β‐glucuronidase and sulphatase activity; Sigma, St. Louis, MO, USA; G0751) to convert aglycon from conjugated metabolites of IXA and 8‐PN, as described in a previous report (Y. Tanaka et al., [2022]). Briefly, 100 μL of plasma was mixed with 900 μL of 0.1 mol/L sodium acetate buffer (pH 4.7), 200 μL of 50 mmol/L ascorbic acid, and 1 mL of 1.67 μkat/100 μL of β‐glucuronidase type H‐1, and then incubated for 30 min at 37°C. Then, 2.4 nmol of QTM was added to the samples as the internal standard. The liberated aglycone was extracted using ethyl acetate (Kanto Kagaku, 14,029‐2B).
as §3, §4

[4] = Tissue and plasma accumulation after daily gavage administration of IXA to mice for 14 days; type: in vivo, C57/BL6 mice; conditions: IXA 30 mg/kg BW daily 14 days, metabolite, 24 h after final administration
Description: Animal species, age, sex, initial BW, feeding conditions, and dosage method were the same as those for the single gavage administration test, but the dose was 30 mg/kg BW. […] Daily gavage administration without fasting was performed at 12:00 PM for 14 days. The final BW was 21–26 g. Blood, brain, thymus, heart, lung, liver, spleen, kidney, and gastrocnemius muscle were collected 24 h after the final administration. The sample collection method was the same as that for the single gavage administration test.
as §5, §1, §3, §4

amount of 8-PN relative to that of IXA (times higher) ([1]; IXA 112.5 mg/kg, 28 days): approximately two | 8-PN levels compared with those of IXA ([1]; IXA 1500 mg/kg, 28 days): approximately 7.4% | correlation coefficient between dose-concentration and accumulation ([1]; IXA 112.5–1500 mg/kg BW once a day for 28 days, Pearson): −.255 | 8-PN accumulation, single-ingestion test (at 24 h) ([2]; liver): 4.6 ± 1.8 nmol/g of tissue | AUC (0–48 h) 8-PN/IXA ([2]; liver): 26% | C max 8-PN ([2]; liver, measured at 24 h): 4.6 ± 1.8 nmol/g of tissue | 8-PN accumulation, single-ingestion test (at 24 h) ([2]; lung): 1.8 ± 0.9 nmol/g of tissue | AUC (0–48 h) 8-PN/IXA ([2]; lung): 109% and 109.3% | C max 8-PN ([2]; lung, measured at 2 h): 4.5 ± 2.5 nmol/g of tissue | AUC (0–48 h) 8-PN/IXA ([2]; pancreas): 1% | C max 8-PN ([2]; pancreas, measured at 1 h): 0.6 ± 0.5 nmol/g of tissue | 8-PN in the plasma during the experiment [3]: not observed | 8-PN accumulation, 14-day repeated-ingestion test ([4]; brain): 0.8 ± 0.7 nmol/g of tissue | 8-PN accumulation, 14-day repeated-ingestion test ([4]; heart): not detected | 8-PN accumulation, 14-day repeated-ingestion test ([4]; liver): 2.1 ± 0.4 nmol/g of tissue | 8-PN accumulation, 14-day repeated-ingestion test ([4]; lung): 3.9 ± 3.5 nmol/g of tissue | 8-PN accumulation, 14-day repeated-ingestion test ([4]; muscle): 0.1 ± 0.0 nmol/g of tissue | 8-PN accumulation, 14-day repeated-ingestion test ([4]; plasma): not detected | 8-PN accumulation, 14-day repeated-ingestion test ([4]; spleen): 0.6 ± 0.6 nmol/g of tissue | 8-PN accumulation, 14-day repeated-ingestion test ([4]; thymus): 0.6 ± 0.5 nmol/g of tissue
Compound: 4,5,7‐trihydroxy‐8‐prenylflavanone [8‐PN]

Compound: CC(C)=CCc1c(O)cc2c(c1O)C(=O)C[C@@H](c1ccc(O)cc1)O2 [6‐PN, 6‐prenylnaringenin]
presence of 6-PN in the samples analyzed in this study ([2]; mouse, in vivo): not detected
